Reference: patent US8927590B2, “Synthesis of pyrrolidine compounds” (Zealand Pharma A/S, priority 2006, dated 2015)
Where two headings read alike, the source gives them in different places.

Test: Dynamic vapor sorption (DVS) at a series of relative humidity conditions
Type: physicochemical
Experimental: In some embodiments, the (2S,4R)-1-(2-aminoacetyl)-4-benzamidopyrrolidine-2-carboxylic acid hydrochloride monohydrate is characterized by dynamic vapor sorption (“DVS”). DVS data were collected using Dynamix Vapor Sorption Apparatus (DVS-1) made by Surface Measurement System Ltd. Samples were analyzed by subjecting them to a series of relative humidity (RH) conditions at 25° C. The relative humidity was scanned from about 0% to about 90%.

Cl.NCC(=O)N1C[C@H](NC(=O)c2ccccc2)C[C@H]1C(=O)O [(2S,4R)-1-(2-Aminoacetyl)-4-benzamidopyrrolidine-2-carboxylic acid hydrochloride]
stability of the solid form to changes in humidity (DVS conclusion): not stable to environmental changes in humidity | increase in mass when relative humidity increased from 0% RH to 90% RH (DVS, 25° C., first cycle, 0 to about 1200 min (FIG. 7)): 21.7%

Cl.NCC(=O)N1C[C@H](NC(=O)c2ccccc2)C[C@H]1C(=O)O.O [(2S,4R)-1-(2-aminoacetyl)-4-benzamidopyrrolidine-2-carboxylic acid hydrochloride monohydrate]
reversible change of mass between 0% RH and 10% RH (DVS, 25° C., 0% RH to 10% RH (FIG. 6)): about 1.5% | mass between 10% RH and about 70% RH (DVS, 25° C., 10% RH to about 70% RH (FIG. 6)): relatively stable mass | stability of the solid form to changes in humidity (DVS conclusion) (DVS, 25° C., RH cycled about 0% to about 90%): sorbed water is reversibly lost and does not appear to adversely affect the integrity of the crystalline form | reversible mass change between about 70% RH and 90% RH (DVS, 25° C., about 70% RH to 90% RH (FIG. 6)): ~2.5%
